{"source": "paper PMC4107924", "about": "“Structure and function study of the complex that synthesizes S-adenosylmethionine” (IUCrJ, 2014)", "assay_type_in_all_cases": "binding", "key": {"MATβV2": {"target": "T1, MATβV2 (Homo sapiens, UniProt Q9NZL9)", "T1 construct": "gene MAT2B; recombinant in E. coli BL21(DE3), pET-28a(+); His tag cut with thrombin; free subunit", "T1 sequence (Q9NZL9 1-323 isoform Q9NZL9-2)": "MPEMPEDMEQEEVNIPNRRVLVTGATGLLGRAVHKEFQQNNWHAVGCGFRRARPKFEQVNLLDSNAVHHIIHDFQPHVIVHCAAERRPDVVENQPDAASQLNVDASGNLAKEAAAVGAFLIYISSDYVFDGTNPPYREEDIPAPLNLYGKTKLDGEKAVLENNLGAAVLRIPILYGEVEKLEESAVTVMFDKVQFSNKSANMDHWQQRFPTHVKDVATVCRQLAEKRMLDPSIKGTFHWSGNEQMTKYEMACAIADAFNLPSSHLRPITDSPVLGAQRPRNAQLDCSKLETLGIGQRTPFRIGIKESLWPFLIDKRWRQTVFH", "test": "ITC", "settings": "read-out: NADP → MATβV2"}, "MATβV1": {"target": "T2, MATβV1 (Homo sapiens, UniProt Q9NZL9)", "T2 construct": "gene MAT2B; recombinant in E. coli BL21(HC41), HIS-parallel vector; His tag cut with TEV protease; free subunit", "T2 sequence (Q9NZL9 whole entry)": "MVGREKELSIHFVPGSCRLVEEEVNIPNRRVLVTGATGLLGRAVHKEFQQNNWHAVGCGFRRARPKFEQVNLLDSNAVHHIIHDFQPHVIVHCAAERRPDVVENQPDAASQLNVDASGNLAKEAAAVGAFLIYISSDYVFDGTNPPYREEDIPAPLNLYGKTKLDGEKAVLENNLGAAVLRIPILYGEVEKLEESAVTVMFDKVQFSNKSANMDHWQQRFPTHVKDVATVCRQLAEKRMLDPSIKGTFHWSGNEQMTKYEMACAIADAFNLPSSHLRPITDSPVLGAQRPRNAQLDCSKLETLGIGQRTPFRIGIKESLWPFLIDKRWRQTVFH", "test": "ITC", "settings": "read-out: NADP → MATβV1"}, "MAT(α2)4(βV2)2 [1]": {"target": "T3, MAT(α2)4(βV2)2 (Homo sapiens, UniProt P31153)", "T3 construct": "gene MAT2A; recombinant in E. coli BL21(DE3), assembled in vitro; His tags cut (TEV for MATα2, thrombin for MATβV2); 258 kDa, 4:2 complex; with Methionine adenosyltransferase 2 subunit beta", "T3 sequence (P31153 whole entry)": "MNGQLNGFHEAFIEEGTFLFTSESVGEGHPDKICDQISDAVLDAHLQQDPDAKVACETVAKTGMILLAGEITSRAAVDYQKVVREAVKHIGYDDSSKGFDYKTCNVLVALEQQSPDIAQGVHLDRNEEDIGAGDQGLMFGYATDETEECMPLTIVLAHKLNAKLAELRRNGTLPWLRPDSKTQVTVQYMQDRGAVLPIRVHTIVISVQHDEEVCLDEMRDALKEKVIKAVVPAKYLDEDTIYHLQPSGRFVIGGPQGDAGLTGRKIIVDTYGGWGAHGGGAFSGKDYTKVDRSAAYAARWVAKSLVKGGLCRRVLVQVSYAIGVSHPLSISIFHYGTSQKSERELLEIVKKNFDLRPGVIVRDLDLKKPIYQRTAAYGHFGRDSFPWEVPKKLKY", "T3 sequence (Q9NZL9 21-334 partner limits assumed)": "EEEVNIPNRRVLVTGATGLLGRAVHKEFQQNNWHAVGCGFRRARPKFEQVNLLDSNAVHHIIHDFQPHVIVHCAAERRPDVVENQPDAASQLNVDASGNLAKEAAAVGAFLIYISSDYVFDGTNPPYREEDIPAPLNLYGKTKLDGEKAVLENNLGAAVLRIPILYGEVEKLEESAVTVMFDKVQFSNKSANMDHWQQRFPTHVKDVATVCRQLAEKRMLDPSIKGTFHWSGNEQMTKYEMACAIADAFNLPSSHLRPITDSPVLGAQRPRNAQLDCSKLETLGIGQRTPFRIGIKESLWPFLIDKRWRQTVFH", "test": "X-ray crystal structure, […] Å", "settings": "crystal co-crystallized and soaked with AMPPNP and methionine; SAMe also bound; Mg"}, "MAT(α2)4(βV2)2 [2]": {"target": "T3, MAT(α2)4(βV2)2", "test": "X-ray crystal structure, […] Å", "settings": "active site at MATα2 dimer interface; Mg; two of four sites occupied; SAMe also in 4ndn"}, "MAT(α2)4(βV2)2 [3]": {"target": "T3, MAT(α2)4(βV2)2", "test": "X-ray crystal structure, […] Å", "settings": "crystal co-crystallized and soaked with ATP only; ADO and PO4 at active site; Mg"}}, "note": "pKd: −log10 of the molar value.", "data": [{"smiles": "NC(=O)c1ccc[n+]([C@@H]2O[C@H](COP(=O)(O)OP(=O)(O)OC[C@H]3O[C@@H](n4cnc5c(N)ncnc54)[C@H](OP(=O)(O)O)[C@@H]3O)[C@@H](O)[C@H]2O)c1", "note": "[NADP]", "values": [{"measurement": "pKd", "setting": "MATβV2", "value": 5.05}, {"measurement": "pKd", "setting": "MATβV1", "value": 5.07}]}, {"smiles": "O=P(O)(O)NP(=O)(O)OP(=O)(O)O", "note": "[PPNP]", "values": [{"measurement": "X-ray crystal structure, 2.35 Å", "setting": "MAT(α2)4(βV2)2 [1]", "value": "Crystal co-crystallized and soaked with AMPPNP and methionine shows SAMe and PPNP"}]}, {"smiles": "C[S+](CC[C@H](N)C(=O)O)C[C@H]1O[C@@H](n2cnc3c(N)ncnc32)[C@H](O)[C@@H]1O", "note": "(some centres unmarked) [SAMe]", "values": [{"measurement": "X-ray crystal structure, 2.6 Å", "setting": "MAT(α2)4(βV2)2 [2]", "value": "the presence of SAMe, adenosine (ADO) or PPNP"}]}, {"smiles": "Nc1ncnc2c1ncn2[C@@H]1O[C@H](CO)[C@@H](O)[C@H]1O", "note": "[adenosine]", "values": [{"measurement": "X-ray crystal structure, 3.3 Å", "setting": "MAT(α2)4(βV2)2 [3]", "value": "shows adenosine molecule (ADO) and PO4 at the active site"}]}]}
